Blank lines part the entries; values can stand above or below the molecule they belong to. Active and inactive are the calls of the source. The rule behind the calls is not given here.
How the values were obtained:
[1] = Partition coefficient, logD of compound in 1-octanol and phosphate buffer at pH 7.4 incubated for 1 hr under shaking condition by HPLC analysis; format: physicochemical; conditions: for logD at 1 h: 1-octanol/phosphate buffer, pH 7.4
Jurkat = assay: Cytotoxicity against human Jurkat cells assessed as cell growth inhibition incubated for 48 hrs by MTT assay; format: functional, cell-based
[2] = biological target: Programmed cell death protein 1/Programmed cell death 1 ligand 1 (Homo sapiens) (UniProt Q15116+Q9NZQ7); conditions: dose 300.0 nM, time 15.0 min
[3] = biological target: Programmed cell death protein 1/Programmed cell death 1 ligand 1 (Homo sapiens, UniProt Q9NZQ7); assay: Inhibition of PD-1/PD-L1 (unknown origin) interaction incubated for 15 mins by HTRF assay; format: protein-complex assay
Programmed cell death protein 1/Programmed cell death 1 ligand 1, sequence (Q15116 whole entry): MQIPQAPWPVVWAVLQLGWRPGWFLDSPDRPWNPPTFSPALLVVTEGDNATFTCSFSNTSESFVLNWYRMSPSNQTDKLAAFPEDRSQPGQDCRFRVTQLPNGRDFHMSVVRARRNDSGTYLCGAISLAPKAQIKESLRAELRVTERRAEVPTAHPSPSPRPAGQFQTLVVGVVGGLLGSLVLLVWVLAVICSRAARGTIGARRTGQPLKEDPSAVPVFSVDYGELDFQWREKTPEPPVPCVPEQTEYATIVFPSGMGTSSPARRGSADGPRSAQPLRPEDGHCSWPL
Programmed cell death protein 1/Programmed cell death 1 ligand 1, sequence (Q9NZQ7 whole entry): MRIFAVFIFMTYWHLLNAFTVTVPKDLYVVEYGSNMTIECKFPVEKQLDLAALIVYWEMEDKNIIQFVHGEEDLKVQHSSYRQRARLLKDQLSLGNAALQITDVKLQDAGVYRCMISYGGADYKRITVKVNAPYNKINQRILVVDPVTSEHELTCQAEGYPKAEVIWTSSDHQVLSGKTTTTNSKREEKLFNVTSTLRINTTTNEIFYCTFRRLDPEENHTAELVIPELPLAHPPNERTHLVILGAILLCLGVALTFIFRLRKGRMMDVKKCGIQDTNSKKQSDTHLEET

RKO [4] = assay: Cytotoxicity against human RKO cells over expressing human PD-L1 at above 10 uM; format: toxicity, cell-based
[5] = Toxicity in BALB/c mouse implanted with mouse CT26 cells assessed as weight loss at 25 mg/kg, ip qd administered for 10 days measured every 2 days for 12 days relative to control; format: organism-based; conditions: in vivo, 288 h, time 12 day
MC-38 = assay: Cytotoxicity against mouse MC38 cells assessed as cell death at 10 uM for 48 hrs by MTT assay; format: toxicity, cell-based; conditions: mc-38, 48 h
[6] = biological target: Programmed cell death 1 ligand 1 (Homo sapiens) (UniProt Q9NZQ7); assay: Inhibition of human PD-L1 overexpressed in RKO cells assessed as reduction in membrane activity cocultured for 48 hrs by flow cytometry analysis; format: cell-based
Programmed cell death 1 ligand 1 (Homo sapiens), sequence (Q9NZQ7 whole entry): as above

[7] = biological target: Programmed cell death 1 ligand 1 (Homo sapiens) (UniProt Q9NZQ7); assay: Induction of human PD-L1 degradation expressed in MC38 cells at 10 uM cocultured for 72 hrs by Western blotting analysis; format: cell-based
RKO [8] = assay: Cytotoxicity against human RKO cells over expressing human PD-L1 at 50 uM; format: toxicity, cell-based
[9] = biological target: Programmed cell death 1 ligand 1 (Homo sapiens) (UniProt Q9NZQ7); assay: Induction of human PD-L1 degradation expressed in MC38 cells at 0.1 to 10 uM cocultured for 72 hrs by Western blotting analysis; format: cell-based; conditions: dose 0.1-10 µM
[10] = Cytotoxicity against human Jurkat T cells assessed as cell viability at 10 uM incubated for 48 hrs by MTT assay; format: toxicity, cell-based; conditions: read-out: Activity

logD at 1 h [1]: 3.18
SMILES: CN(C)CCCN1c2ccccc2Sc2ccc(Cl)cc21 [CHLORPROMAZINE]

SMILES: COc1ccc(CNCCO)cc1OCc1cccc(-c2ccccc2)c1C
IC50 (Jurkat): 17900 nM | inhibition [2]: 26.9%

SMILES: COc1cc(OCc2cccc(-c3ccccc3)c2C)cc(OC)c1CNCc1cn([C@H]2O[C@H](CO)[C@@H](O)[C@H](O)[C@@H]2O)nn1
IC50 (Jurkat): 50500 nM | IC50 [3]: 114 nM

logD at 1 h [1]: 3.33
SMILES: COc1nc(OCc2cccc(-c3ccccc3)c2C)ccc1CNCCNC(C)=O
IC50 (Jurkat): 2600 nM | Activity (RKO [4]): Toxic | Activity [5]: Toxic | Activity (MC-38): Toxic

SMILES: COc1ccc(CNCc2cn([C@H]3O[C@@H](C)[C@@H](O)[C@@H](O)[C@@H]3O)nn2)cc1OCc1cccc(-c2ccccc2)c1C
IC50 (Jurkat): 53100 nM | IC50 [3]: 1920 nM

SMILES: COc1cc(OCc2cccc(-c3ccccc3)c2C)cc(OC)c1CNCc1cn([C@@H]2OC[C@H](O)[C@@H](O)[C@H]2O)nn1
IC50 (Jurkat): 19800 nM | IC50 [3]: 321 nM

SMILES: Cc1c(COc2ccc(Cl)c(CNCCO)c2)cccc1-c1ccccc1
IC50 (Jurkat): 12400 nM | inhibition [2]: 36.7%

SMILES: COc1nc(OCc2cccc(-c3ccccc3)c2C)ccc1CNCc1cn([C@@H]2OC[C@@H](O)[C@H](O)[C@H]2O)nn1
IC50 (Jurkat): 25500 nM | IC50 [3]: 110 nM

SMILES: COc1cc(OCc2cccc(-c3ccccc3)c2C)cc(OC)c1CNCc1cn([C@@H]2OC[C@@H](O)[C@H](O)[C@H]2O)nn1
IC50 (Jurkat): 27600 nM | IC50 [3]: 353 nM

SMILES: COc1nc(OCc2cccc(-c3ccccc3)c2C)ccc1CNCc1cnnn1[C@H]1OC[C@@H](O)[C@H](O)[C@@H]1O
IC50 (Jurkat): 26700 nM | IC50 [3]: 118 nM

SMILES: COc1nc(OCc2cccc(-c3ccccc3)c2C)ccc1CNCCO[C@H]1O[C@H](CO)[C@@H](O)[C@H](O)[C@@H]1O
inhibition [6]: Active | Activity [7]: Active | Activity (RKO [8]): Non-Toxic

SMILES: COc1ccc(CNCc2cn([C@H]3O[C@H](CO)[C@@H](O)[C@H](O)[C@@H]3O)nn2)cc1OCc1cccc(-c2ccccc2)c1C
IC50 (Jurkat): 73900 nM | IC50 [3]: 1150 nM

SMILES: COc1cc(OCc2cccc(-c3ccccc3)c2C)cc(OC)c1CNCc1cn([C@@H]2O[C@H](CO)[C@@H](O)[C@H](OC)[C@H]2O)nn1
IC50 (Jurkat): 44000 nM | IC50 [3]: 355 nM

SMILES: COc1cc(OCc2cccc(-c3ccccc3)c2C)cc(OC)c1CNCc1cn([C@@H]2OC[C@@H](O)[C@@H](O)[C@H]2O)nn1
IC50 (Jurkat): 14900 nM | IC50 [3]: 206 nM

SMILES: COc1cc(OCc2cccc(-c3ccccc3)c2C)cc(OC)c1CNCc1cn([C@@H]2O[C@H](CO)[C@@H](O)[C@H](O)[C@H]2O)nn1
IC50 (Jurkat): > 100000 nM | IC50 [3]: 147 nM

SMILES: Cc1c(COc2cc(CNCCO)ccc2Cl)cccc1-c1ccccc1
IC50 (Jurkat): 7800 nM | inhibition [2]: 51.4%

SMILES: COc1nc(OCc2cccc(-c3ccccc3)c2C)ccc1CNCc1cn([C@@H]2O[C@H](CO)[C@@H](O)[C@H](O)[C@H]2NC(C)=O)nn1
IC50 (Jurkat): > 100000 nM | IC50 [3]: 23.7 nM

SMILES: COc1ccc(CNCc2cn([C@@H]3O[C@H](CO)[C@H](O)[C@H](O)[C@H]3O)nn2)cc1OCc1cccc(-c2ccccc2)c1C
IC50 (Jurkat): > 100000 nM | IC50 [3]: 612 nM

SMILES: COc1ccc(CNCc2cn([C@@H]3O[C@@H]4CO[C@@H](c5ccccc5)O[C@H]4[C@H](O)[C@H]3O)nn2)cc1OCc1cccc(-c2ccccc2)c1C
IC50 (Jurkat): 6200 nM | IC50 [3]: 2960 nM

SMILES: COc1cc(OCc2cccc(-c3ccccc3)c2C)cc(OC)c1CNCc1cn([C@H]2O[C@@H](C)[C@@H](O)[C@@H](O)[C@@H]2O)nn1
IC50 (Jurkat): 30800 nM | IC50 [3]: 161 nM

SMILES: COc1cc(OCc2cccc(-c3ccccc3)c2C)cc(OC)c1CNCCO[C@@H]1O[C@H](CO)[C@@H](O)[C@H](O)[C@H]1O
Activity [9]: inactive

SMILES: Cc1cc(OCc2cccc(-c3ccccc3)c2C)cc(C)c1CNCCO
IC50 (Jurkat): 4100 nM | inhibition [2]: 62.8%

SMILES: COc1ccc(CNCc2cn([C@@H]3OC[C@H](O)[C@@H](O)[C@H]3O)nn2)cc1OCc1cccc(-c2ccccc2)c1C
IC50 (Jurkat): 53900 nM | IC50 [3]: 1480 nM

SMILES: COc1nc(OCc2cccc(-c3ccccc3)c2C)ccc1CNCc1cn([C@@H]2O[C@H](CO)[C@H](O)[C@H](O)[C@H]2O)nn1
IC50 (Jurkat): > 100000 nM | IC50 [3]: 174 nM

SMILES: COc1nc(OCc2cccc(-c3ccccc3)c2C)ccc1CNCc1cn([C@@H]2OC[C@@H](O)[C@@H](O)[C@H]2O)nn1
IC50 (Jurkat): 16900 nM | IC50 [3]: 98.9 nM

SMILES: COc1cc(OCc2cccc(-c3ccccc3)c2C)cc(OC)c1CNCc1cnnn1[C@H]1OC[C@@H](O)[C@H](O)[C@@H]1O
IC50 (Jurkat): 24900 nM | IC50 [3]: 169 nM

logD at 1 h [1]: 2.85
SMILES: COc1cc(OCc2cccc(-c3ccccc3)c2C)cc(OC)c1CNCCO
viability at 48 h, 10 µM [10]: 0% | IC50 (Jurkat): 5700 nM

logD at 1 h [1]: 3.23
SMILES: COc1nc(OCc2cccc(-c3ccccc3)c2C)ccc1CNCCO
viability at 48 h, 10 µM [10]: 0% | IC50 (Jurkat): 2800 nM | inhibition [2]: 94.5%

SMILES: COc1ccc(CNCc2cn([C@@H]3OC[C@@H](O)[C@@H](O)[C@H]3O)nn2)cc1OCc1cccc(-c2ccccc2)c1C
IC50 (Jurkat): 31300 nM | IC50 [3]: 2260 nM

SMILES: COc1ccc(CNCc2cn([C@@H]3OC[C@H](O)[C@H](O)[C@H]3O)nn2)cc1OCc1cccc(-c2ccccc2)c1C
IC50 (Jurkat): 49200 nM | IC50 [3]: 1240 nM

SMILES: COc1ccc(CNCc2cn([C@@H]3O[C@H](CO)[C@@H](O)[C@H](O)[C@H]3NC(C)=O)nn2)cc1OCc1cccc(-c2ccccc2)c1C
IC50 (Jurkat): > 100000 nM | IC50 [3]: 1090 nM

SMILES: COc1nc(OCc2cccc(-c3ccccc3)c2C)ccc1CNCc1cn([C@@H]2O[C@H](CO)[C@@H](O)[C@H](O)[C@H]2O)nn1
IC50 (Jurkat): > 100000 nM | IC50 [3]: 56.1 nM

SMILES: CN(C)CCC=C1c2ccccc2CCc2ccccc21 [AMITRIPTYLINE]
logD at 1 h [1]: 3

SMILES: COc1cc(OCc2cccc(-c3ccccc3)c2C)cc(OC)c1CNCc1cn([C@@H]2O[C@H](CO)[C@@H](O)[C@H](O)[C@H]2NC(C)=O)nn1
IC50 (Jurkat): > 100000 nM | IC50 [3]: 30 nM

SMILES: COc1ccc(CNCc2cn([C@@H]3O[C@H](CO)[C@@H](O)[C@H](OC)[C@H]3O)nn2)cc1OCc1cccc(-c2ccccc2)c1C
IC50 (Jurkat): 50000 nM | IC50 [3]: 384 nM

SMILES: COc1ccc(CNCc2cn([C@@H]3OC[C@@H](O)[C@H](O)[C@H]3O)nn2)cc1OCc1cccc(-c2ccccc2)c1C
IC50 (Jurkat): 47500 nM | IC50 [3]: 1780 nM

SMILES: COc1ccc(CNCc2cn([C@@H]3O[C@H](CO)[C@@H](O)[C@H](O)[C@H]3O)nn2)cc1OCc1cccc(-c2ccccc2)c1C
IC50 (Jurkat): > 100000 nM | IC50 [3]: 1760 nM

logD ([1]; octanol/water, pH 7.4, 1 h): -1.2
SMILES: CC(C)(C)NCC(O)COc1cccc2c1CC(O)C(O)C2 (stereo unspecified) [NADOLOL]

SMILES: COc1cc(OCc2cccc(-c3ccccc3)c2C)cc(OC)c1CNCc1cn([C@@H]2OC[C@H](O)[C@H](O)[C@H]2O)nn1
IC50 (Jurkat): 43400 nM | IC50 [3]: 507 nM

SMILES: COc1nc(OCc2cccc(-c3ccccc3)c2C)ccc1CNCc1cn([C@H]2O[C@H](CO)[C@@H](O)[C@H](O)[C@@H]2O)nn1
IC50 (Jurkat): 46000 nM | IC50 [3]: 164 nM

SMILES: COc1ccc(CNCc2cn([C@H]3OC[C@@H](O)[C@H](O)[C@@H]3O)nn2)cc1OCc1cccc(-c2ccccc2)c1C
IC50 (Jurkat): 43500 nM | IC50 [3]: 503 nM

logD at 1 h [1]: 3.25
SMILES: COc1cc(OCc2cccc(-c3ccccc3)c2C)cc(OC)c1CN[C@H](C)CO
IC50 (Jurkat): 2800 nM | Activity (RKO [4]): Toxic | Activity (MC-38): Toxic

SMILES: Cc1c(COc2ccc(CNCCO)cc2F)cccc1-c1ccccc1
IC50 (Jurkat): 5400 nM | inhibition [2]: 57.1%

SMILES: COc1nc(OCc2cccc(-c3ccccc3)c2C)ccc1CNCc1cn([C@@H]2O[C@H](CO)[C@@H](O)[C@H](OC)[C@H]2O)nn1
IC50 (Jurkat): 34300 nM | IC50 [3]: 305 nM

SMILES: COc1nc(OCc2cccc(-c3ccccc3)c2C)ccc1CNCc1cn([C@@H]2O[C@@H]3CO[C@@H](c4ccccc4)O[C@H]3[C@H](O)[C@H]2O)nn1
IC50 (Jurkat): 8800 nM | IC50 [3]: 461 nM

SMILES: COc1cc(OCc2cccc(-c3ccccc3)c2C)cc(OC)c1CNCc1cn([C@@H]2O[C@@H]3CO[C@@H](c4ccccc4)O[C@H]3[C@H](O)[C@H]2O)nn1
IC50 (Jurkat): 4500 nM | IC50 [3]: 1090 nM

SMILES: COc1cc(OCc2cccc(-c3ccccc3)c2C)cc(OC)c1CNCc1cn([C@@H]2O[C@H](CO)[C@H](O)[C@H](O)[C@H]2O)nn1
IC50 (Jurkat): 27300 nM | IC50 [3]: 454 nM

SMILES: COc1nc(OCc2cccc(-c3ccccc3)c2C)ccc1CNCc1cn([C@H]2O[C@@H](C)[C@@H](O)[C@@H](O)[C@@H]2O)nn1
IC50 (Jurkat): 24500 nM | IC50 [3]: 178 nM

— ChEMBL document CHEMBL5338801, “Carbohydrate Strengthens the Immunotherapeutic Effect of Small-Molecule PD-L1 Inhibitors” (J Med Chem, 2023)
